Test results published in patent US20260356984A1, “DNA-AFFIBODY-DRUG NANOSTRUCTURES FOR INHIBITING TRIPLE NEGATIVE BREAST CANCER GROWTH AND METASTASIS” (ARIZONA BOARD OF REGENTS ON BEHALF OF ARIZONA STATE …, priority 2022, published 2026).
Blank lines part the entries; values can stand above or below the compound they belong to.

Key:
breast cancer = breast cancer patients; cited from earlier work
[1] = test system: double-strand linear DNA (20 bp, 40 bp and 60 bp); test: Linear double-strand DNA binding to THZ1 (1% agarose gel); details: 40-160 mM THZ1
Method: FIG. 9. Verification of linear DNA binding to THZ1. Double-strand linear DNAs were mixed with different amounts of THZ1 and loaded on 1% agarose gel. The gels were run at 150 V for 20 min, and stained with EtBr.
Binding of DNA to THZ1 was evaluated (FIG. 9). Double-strand linear DNAs (20 bp, 40 bp and 60 bp) were prepared by mixing two complimentary DNAs (as listed below) in 50 mM Tris-HCl, pH 7.5, containing 50 mM NaCl. The reaction mixtures were heated at 90 °C for 5 min, then cool to room temperature. To keep the same base-pair number for each same, the 20 bp DNA was adjusted to 2 mM; 40 bp DNA was adjusted to 1 mM; 60 bp DNA was adjusted to 0.67 mM. Then 40-160 mM THZ1 were added to each sample and loaded on 1% agarose gel.

MB-231 cells = test: Growth/death of MB-231 cells after 48 h incubation; format: cell-based; details: 500 nM THZ1
Method: (§1) FIGS. 4A-4H. Crosslinking of BC cells induced by I. MB-231 cells without drug treatment (A, D); with 500 nM THZ1 (B, E); with 10 nM I (C, F) were incubated 24 h and 48 h, respectively. (G) Calculated crosslinking efficiency of MB-231 cells in the presence of 10 nM I in 24 h (p<0.001); (H) Calculated crosslinking efficiency of BT474 cells in the presence of 10 nM I in 24 h.
(§2) Crosslinking assay: Crosslinking of TNBC cells by I was verified using a HER1 overexpressing TNBC cell line (MDA-MB-23146). In the presence of nanostructure I (containing 50 copies of THZ1), the cells were effectively crosslinked to each other through multiple ZHER1-HER1 bindings. […] The crosslinking efficiency was up to 96% in 24 h (FIG. 4G). [Crosslinking efficiency (%)=(cell number without any treatment-non-aggregated cell number)× 100%/(cell number without any treatment). Data were reported as the mean of three independent experiments].

MDA-MB-231 cells = test: Crosslinking assay of HER1 overexpressing TNBC cells; format: cell-based; details: 500 nM free THZ1; 24 h
Method: as §1, §2

DNA tetrahedron = test: DNA-THZ1 binding assay (G-25 column, UV absorption 220 nm)
Method: FIGS. 3A-3B. DNA-THZ1 binding assay. (A) Analysis of binding ratio of THZ1 to DNA tetrahedron using UV absorption of THZ1 (220 nm). DNA tetrahedron (0.2 μM) was added different amounts of THZ1 (2-12 μM). The unbound THZ1 was removed through a Sephadex G-25 column for the detection samples. (B) Analysis of THZ1 binding to DNA tetrahedron (TH)-4ZHER1 using 1% agarose gel electrophoresis. The gel was run at 110 V for 1 h, and stained with ethidium bromide. Lanes 1-5, […] DNA tetrahedron (TH)-4ZHER1 incubated with 0-200 folds of THZ1.
DNA-THZ1 binding assay: The DNA binding property of THZ1 was evaluated following our reported method.^43 DNA tetrahedron was incubated with 10-60 fold of THZ1. After purification with G-25 column to remove unbound THZ1, the amount of THZ1 in the DNA tetrahedron was measured using UV absorption at 220 nm. […] Then we used a 1% agarose gel to analyze the binding property for high concentrations of THZ1. […] Thus, we used 50-fold of THZ1 to prepare DNA tetrahedron-4ZHER1-THZ1 nanostructure (I) for following assays.

[2] = test system: MB231 breast cancer cells; test: Transwell migration assay; format: cell-based; details: 500 nM THZ1; 24 h; p<0.001
Method: (§3) FIGS. 5A-5E. Migration assays for MB231 breast cancer cells. (A) without drug treatment; (B) treatment with THZ1; (C) treatment with nanostructure I; (D) Migration rate of MB231 (migrated cell numbers/control cell numbers×100%) (p<0.001); (E) Invasion rate of MB231 (invaded cell numbers/control cell numbers×100%) (p<0.001).
Migration assay: To verify whether nanostructure I blocks TNBC cell dissociation from aggregated cell clusters, a Transwell™ migration assay was performed. […] Since nanostructure I contains the same amount of THZ1, the enhanced inhibition of migration by nanostructure I is attributed to its ability to crosslink the cells. As a negative control, the migration of HER1 negative BT474 BC cells were not inhibited by I (FIG. 6A).

MB231 cancer cells = test: Invasion assay (matrigel treated Transwell); format: cell-based; details: 500 nM THZ1; 24 h; p<0.001
Method: as §3
Invasion assay: To verify whether nanostructure I blocks cells from passing through vessel walls, an invasion assay was performed using a matrigel matrix treated Transwell™ to mimic the vessel wall. […] As a negative control, the invasion of HER1 negative BT474 BC cells were not affected by I (FIG. 6B).

TNBC = details: employed as a single agent; cited from earlier work

Compound: Patritumab deruxtecan: HER3 antibody drug conjugate
- clinical activity (breast cancer): early and clinically meaningful activity

- binding to double-strand DNA [1]: can bind to double-strand DNA
- concentration of THZ1 in DNA tetrahedron (DNA tetrahedron; 0.2 μM DNA tetrahedron, ratio THZ1/DNA tetrahedron 10 to 50, UV 220 nm after G-25 column): increased linearly
Compound: CN(C)C/C=C/C(=O)Nc1ccc(C(=O)Nc2cccc(Nc3ncc(Cl)c(-c4c[nH]c5ccccc45)n3)c2)cc1 [THZ1]
- cell growth (MB-231 cells): partially growth inhibited
- cell aggregation (MDA-MB-231 cells): not aggregated
- passage of THZ1/DNA complex through G-25 column (DNA tetrahedron; ratio THZ1/DNA tetrahedron 60): part of THZ1/DNA complex did not pass through the G-25 column
- inhibition of migration [2]: 57%
- inhibition of invasion (MB231 cancer cells): 51%

Compound: panitumumab: Anti-HER1 monoclonal antibody
- benefit to TNBC patients (TNBC): neither antibody confers significant benefit to TNBC patients
